Values of other authors in patent publication US20220143119A1, “CROTON LECHLERI COMPOSITIONS FOR USE IN THE TREATMENT OF SKIN CANCER” (ALPHYN BIOLOGICS, LLC, priority 2019, published 2022).

Test system: human melanoma SK23

**Q.** Which “inhibition against human melanoma SK23” value does the source give for `COc1ccc2c(=O)oc3c(OC)cc(CCN(C)C)c4c(=O)oc1c2c34` [taspine] here?
**A.** exhibits inhibition
